# Data taken from patent US20060059579A1, “Model animals non-responsive to mycobacteria-origin lipoprotein/lipopeptide” (Japan Science and Technology Agency, priority 2002, published 2006).
# Assays:
# [1] = biological target: T1, TLR1 and TLR2 (Homo sapiens, UniProt O60603+Q15399); experiment: NF-κB pELAM-luciferase reporter assay in HEK 293 cells co-expressing TLR1 and TLR2; format: cell-based; design: expressed in transfected cells; host or cells: HEK 293 cells, transient transfection; settings: co-expression of TLR1 with TLR2, 10 ng/ml for 8 h
# T1 sequence (Q15399 25-786, species assumed): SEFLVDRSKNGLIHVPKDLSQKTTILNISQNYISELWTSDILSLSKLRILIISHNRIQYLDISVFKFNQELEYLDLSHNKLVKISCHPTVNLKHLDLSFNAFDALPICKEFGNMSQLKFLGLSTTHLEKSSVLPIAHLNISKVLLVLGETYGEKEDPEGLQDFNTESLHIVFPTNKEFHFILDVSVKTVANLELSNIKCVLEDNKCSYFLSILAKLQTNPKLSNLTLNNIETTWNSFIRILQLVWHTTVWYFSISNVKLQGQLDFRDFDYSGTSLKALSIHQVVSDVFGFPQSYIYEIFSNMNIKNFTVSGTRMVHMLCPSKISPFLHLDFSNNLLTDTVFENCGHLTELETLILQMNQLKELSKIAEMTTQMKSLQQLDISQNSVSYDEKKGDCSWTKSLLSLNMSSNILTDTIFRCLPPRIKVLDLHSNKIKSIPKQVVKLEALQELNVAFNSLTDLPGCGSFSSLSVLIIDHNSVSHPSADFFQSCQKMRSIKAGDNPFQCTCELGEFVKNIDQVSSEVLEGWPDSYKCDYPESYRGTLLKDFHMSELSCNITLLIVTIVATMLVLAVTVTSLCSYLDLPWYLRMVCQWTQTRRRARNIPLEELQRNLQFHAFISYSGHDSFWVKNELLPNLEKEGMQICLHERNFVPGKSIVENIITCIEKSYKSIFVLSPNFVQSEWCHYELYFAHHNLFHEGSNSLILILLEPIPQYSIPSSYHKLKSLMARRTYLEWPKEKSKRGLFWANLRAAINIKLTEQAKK
# T1 sequence (O60603 21-784, species assumed): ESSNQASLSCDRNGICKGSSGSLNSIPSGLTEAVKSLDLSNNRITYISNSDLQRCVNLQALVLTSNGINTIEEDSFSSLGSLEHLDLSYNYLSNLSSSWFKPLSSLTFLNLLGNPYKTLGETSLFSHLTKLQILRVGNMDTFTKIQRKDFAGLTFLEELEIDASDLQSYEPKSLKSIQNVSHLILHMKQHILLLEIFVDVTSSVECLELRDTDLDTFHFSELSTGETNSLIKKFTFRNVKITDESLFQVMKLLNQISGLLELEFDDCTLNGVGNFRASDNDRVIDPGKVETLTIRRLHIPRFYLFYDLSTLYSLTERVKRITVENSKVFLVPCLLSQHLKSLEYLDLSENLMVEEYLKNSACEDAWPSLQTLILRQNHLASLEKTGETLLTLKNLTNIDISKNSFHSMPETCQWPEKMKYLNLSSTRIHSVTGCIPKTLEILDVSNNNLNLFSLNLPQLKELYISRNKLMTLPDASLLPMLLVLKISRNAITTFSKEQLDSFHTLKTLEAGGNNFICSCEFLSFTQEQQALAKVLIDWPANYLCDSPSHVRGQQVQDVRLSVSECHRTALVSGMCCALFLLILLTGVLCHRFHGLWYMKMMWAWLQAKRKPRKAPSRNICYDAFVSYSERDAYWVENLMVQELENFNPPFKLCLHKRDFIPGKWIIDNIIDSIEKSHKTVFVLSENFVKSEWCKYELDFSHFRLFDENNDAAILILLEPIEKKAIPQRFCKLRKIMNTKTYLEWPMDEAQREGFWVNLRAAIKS
# Procedure: (§1) HEK 293 cells were transformed with TLR1, TLR2 and TLR6 expression vectors, and pELAM-luciferase reporter plasmid were used together. For normalization of transfection efficiency by lipofectamine 2000 (Invitrogen), the indicated vector was used with pELAM-luciferase reporter plasmid (J. Bio. Chem. 274, 10689, 1999) and pRL-TK (Promega) to transfect transiently […] cells. 24 h after transfection, the cells were stimulated with 10 ng/ml of Pam3CSK4 for 8 h. Then, the cells were lysed, and luciferase activity was measured by using Dual-luciferase reporter assay system (Promega) according to the manufacturer's instruction.
# [2] = biological target: T2, TLR6 and TLR2 (Homo sapiens, UniProt O60603); experiment: NF-κB pELAM-luciferase reporter assay in HEK 293 cells co-expressing TLR6 and TLR2; format: cell-based; settings: co-expression of TLR6 and TLR2, 10 ng/ml for 8 h
# T2 construct: expressed in transfected cells; host or cells: HEK 293 cells, transient transfection
# T2 sequence (O60603 21-784, species assumed): as above
# Procedure: as §1
# [3] = biological target: T1, TLR1 and TLR2; experiment: Co-immunoprecipitation of HA-tagged TLR1 and Flag-tagged TLR2 in HEK293 cells; format: binding; design: expressed in transfected cells; host or cells: HEK293 cells
# Procedure: HEK293 cells were co-transfected with 3 μg Flag-tagged TLR2, TLR4 or 6 μg HA-tagged TLR1. After 36 h, the cells were lysed in the lysis buffer containing 1.0% Nonidet P-40, 150 mM NaCl, 20 mM tris-HCl (pH 7.5), 5 mM EDTA and aprotease inhibitor cocktail tablet, Complete (Roche Diagnostics). The solution was pre-treated for 1 h with protein G-sepharose, and immunoprecipitated for 12 h by using 2 μg anti-Flag M2 antibody or 2 μg anti-HA 12 CA5 antibody. The beads were washed four times in the lysis buffer, and the immunoprecipitated proteins were eluted in SDS-PAGE sample buffer solution, separated on SDS-PAGE and transferred onto PVDF membrane. HA-tagged TLR1 was detected with anti-HA antibody (Roche Diagnostics) and HRP-tagged anti-mouse Ig antibody. Flag-tagged proteins were identified with the second antibody, HRP-conjugated anti-Flag M2 antibody. Then, the antibodies were detected by enhanced chemiluminescence system (Dupont).
# [4] = test system: TLR1^-/- macrophages; format: cell-based, mouse
# [5] = biological target: T3, TLR2 (Homo sapiens, UniProt O60603); experiment: NF-κB pELAM-luciferase reporter assay in HEK 293 cells expressing TLR2; format: cell-based; settings: expression of TLR2, 10 ng/ml for 8 h
# T3 construct: expressed in transfected cells; host or cells: HEK 293 cells, transient transfection
# T3 sequence (O60603 21-784, species assumed): as above
# T3 sequence (Q15399 25-786, species assumed, further chain): as the sequence (Q15399 25-786, species assumed) above
# Procedure: as §1
# [6] = test system: TLR2^-/- macrophages; settings: Science 291, 1544, 2001; cited from earlier work
# [7] = test system: peritoneal macrophages of wild-type mice; format: cell-based, mouse
# [8] = test system: TLR1^-/- macrophages; format: cell-based, mouse; remark: listed apart in the source
substance,measurement,setting,value
N-palmitoyl-S-dipalmitoyl glyceryl (Pam3) CSK4 [Pam3CSK4],NF-κB activation (luciferase activity),[1],significantly enhanced the activation
same,NF-κB activation (luciferase activity),[2],did not augment the NF-κB activation
same,extent of association between TLR1 and TLR2 on stimulation,[3],did not affect
same,TNFα production,[4],significantly impaired
same,NF-κB activation (luciferase activity),[5],conferred the NF-κB activation
N-lauryl-S-dilauryl gylceryl (Lau3)CSK4 [Lau3CSK4],TNFα production,[4],impaired
MALP-2,TNFα production,[4],responded normally
N-palmitoyl-S-dilauryl glyceryl (N-Pam-S-Lau2)CSK4 [Lau2N-PamCSK4],TNFα production,[4],considerably impaired
19 kD lipoprotein: Native 19-kD lipoprotein purified from Mycobacterium tuberculosis,Cytokine production,[6],inhibited
same,TNFα production,[7],generated TNFα in a dose-dependent manner
same,TNFα production,[4],impaired
same,IL-6 production,[8],lower in TLR1^-/- macrophages compared with that of wild-type cells
N-myristyl-S-dimyristyl glyceryl (Myr3) CSK4 [Myr3CSK4],TNFα production,[4],impaired
